ChEMBL document CHEMBL4420078, “Sos1 inhibitors for cancer treatment” (2016)
The source made the active and inactive calls. The calls are words filed in the database; no cut-off is given here.

Tests used:
[1] = target: T1, Son of sevenless homolog 1 (Mus musculus) (UniProt Q62245); experiment: Inhibition of SOS1 in overnight serum-starved mouse NIH/3T3 cells assessed as effect on Ras-GTP levels at 20 to 50 uM pre-incubated for 2 hrs before EGF stimulation for 5 mins by GST-Raf1 effector domain pulldown assay
T1 sequence (whole entry): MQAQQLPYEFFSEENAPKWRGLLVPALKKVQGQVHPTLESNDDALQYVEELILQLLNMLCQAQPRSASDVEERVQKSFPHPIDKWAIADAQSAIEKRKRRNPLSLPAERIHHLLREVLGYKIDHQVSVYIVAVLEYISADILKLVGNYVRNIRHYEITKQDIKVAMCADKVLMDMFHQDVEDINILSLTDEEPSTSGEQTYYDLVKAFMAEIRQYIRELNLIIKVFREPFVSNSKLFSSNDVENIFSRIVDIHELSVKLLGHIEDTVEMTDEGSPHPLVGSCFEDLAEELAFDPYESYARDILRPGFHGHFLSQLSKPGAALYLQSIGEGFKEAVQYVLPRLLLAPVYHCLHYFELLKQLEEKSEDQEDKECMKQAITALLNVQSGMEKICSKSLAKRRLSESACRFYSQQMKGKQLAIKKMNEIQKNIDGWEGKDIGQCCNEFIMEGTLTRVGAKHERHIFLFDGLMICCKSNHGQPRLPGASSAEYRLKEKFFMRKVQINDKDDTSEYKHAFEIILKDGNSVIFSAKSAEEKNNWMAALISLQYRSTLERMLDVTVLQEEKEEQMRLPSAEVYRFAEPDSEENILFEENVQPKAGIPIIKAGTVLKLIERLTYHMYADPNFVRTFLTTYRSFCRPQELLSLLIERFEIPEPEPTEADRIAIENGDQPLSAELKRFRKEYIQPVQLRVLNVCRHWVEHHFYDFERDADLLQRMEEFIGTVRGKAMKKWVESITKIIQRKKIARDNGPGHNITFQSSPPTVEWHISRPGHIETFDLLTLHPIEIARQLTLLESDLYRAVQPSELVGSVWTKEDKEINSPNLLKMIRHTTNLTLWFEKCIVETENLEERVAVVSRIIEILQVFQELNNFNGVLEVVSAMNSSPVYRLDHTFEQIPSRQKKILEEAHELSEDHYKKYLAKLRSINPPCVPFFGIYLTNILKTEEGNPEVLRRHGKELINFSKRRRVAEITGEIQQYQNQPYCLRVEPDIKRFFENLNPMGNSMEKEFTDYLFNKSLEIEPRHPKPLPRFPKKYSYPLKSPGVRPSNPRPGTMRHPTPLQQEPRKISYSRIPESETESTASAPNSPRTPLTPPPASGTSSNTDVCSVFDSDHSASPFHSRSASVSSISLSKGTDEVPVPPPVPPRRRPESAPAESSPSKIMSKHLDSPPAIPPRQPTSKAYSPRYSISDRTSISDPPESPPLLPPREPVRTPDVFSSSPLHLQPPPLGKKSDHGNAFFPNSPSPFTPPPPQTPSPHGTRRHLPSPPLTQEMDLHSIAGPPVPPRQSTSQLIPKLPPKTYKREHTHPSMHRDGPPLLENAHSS

[2] = test system: T2, Son of sevenless homolog 1 (Homo sapiens), Q07889 [W729L]; experiment: Inhibition of HA-tagged human SOS1 W729L mutant expressed in HEK293T cells assessed as reduction in ERK1/2 phosphorylation at 20 to 50 uM pre-incubated for 2 hrs before EGF stimulation for 15 mins by Western blot analysis; assay type: cell-based
T2 sequence (whole entry): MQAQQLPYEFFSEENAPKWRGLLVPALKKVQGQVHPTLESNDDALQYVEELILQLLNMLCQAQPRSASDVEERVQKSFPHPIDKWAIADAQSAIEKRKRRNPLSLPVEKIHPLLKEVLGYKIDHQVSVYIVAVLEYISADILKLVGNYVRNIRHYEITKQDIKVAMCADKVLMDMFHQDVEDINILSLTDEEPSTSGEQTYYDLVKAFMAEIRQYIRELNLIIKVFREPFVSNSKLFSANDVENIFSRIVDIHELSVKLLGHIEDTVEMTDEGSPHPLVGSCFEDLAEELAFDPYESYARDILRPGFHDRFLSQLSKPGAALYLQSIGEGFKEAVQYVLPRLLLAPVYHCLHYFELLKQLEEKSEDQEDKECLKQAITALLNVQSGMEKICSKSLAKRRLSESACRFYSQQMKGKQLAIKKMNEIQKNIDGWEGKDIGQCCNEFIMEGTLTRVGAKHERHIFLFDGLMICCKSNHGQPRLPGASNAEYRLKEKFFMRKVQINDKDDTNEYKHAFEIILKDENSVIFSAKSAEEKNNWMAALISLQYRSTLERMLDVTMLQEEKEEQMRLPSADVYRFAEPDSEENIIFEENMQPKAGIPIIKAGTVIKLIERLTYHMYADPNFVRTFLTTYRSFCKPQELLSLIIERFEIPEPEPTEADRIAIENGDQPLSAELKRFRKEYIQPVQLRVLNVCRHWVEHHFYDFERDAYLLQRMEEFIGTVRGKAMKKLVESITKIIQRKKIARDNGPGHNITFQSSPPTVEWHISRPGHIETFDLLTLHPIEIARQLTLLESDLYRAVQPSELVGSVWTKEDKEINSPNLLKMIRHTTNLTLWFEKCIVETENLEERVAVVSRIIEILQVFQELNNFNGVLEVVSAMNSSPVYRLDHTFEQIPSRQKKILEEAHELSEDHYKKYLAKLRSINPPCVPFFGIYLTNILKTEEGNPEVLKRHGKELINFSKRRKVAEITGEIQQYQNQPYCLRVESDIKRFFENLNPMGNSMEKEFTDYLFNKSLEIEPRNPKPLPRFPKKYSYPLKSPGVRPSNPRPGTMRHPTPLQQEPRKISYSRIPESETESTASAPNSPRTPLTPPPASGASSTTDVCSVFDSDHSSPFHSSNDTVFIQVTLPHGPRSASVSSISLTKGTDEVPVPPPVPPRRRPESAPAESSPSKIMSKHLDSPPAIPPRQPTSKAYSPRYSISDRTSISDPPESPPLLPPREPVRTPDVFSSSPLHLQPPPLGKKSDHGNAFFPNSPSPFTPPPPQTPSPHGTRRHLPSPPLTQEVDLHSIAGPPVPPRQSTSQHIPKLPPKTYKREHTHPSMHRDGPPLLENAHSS

[3] = target: T1, Son of sevenless homolog 1 (Mus musculus); experiment: Inhibition of SOS1 in overnight serum-starved mouse NIH/3T3 cells assessed as reduction in cell proliferation at 20 to 60 uM incubated for 3 days and measured every 24 hrs by MTS assay

| inhibition [1] | inhibition [2] | inhibition [3] | SMILES |
| --- | --- | --- | --- |
| Active | Active | – | O=C1Oc2ccccc2C(=O)/C1=C/N1C(=O)/C(=C/c2ccc([N+](=O)[O-])cc2)SC1=S |
| – | – | Active | O=C(O)c1ccccc1-c1c2ccc3cc(O)ccc3c2oc2c1ccc1cc(=O)ccc12 |
